Measurements taken from ChEMBL document CHEMBL4308841, “Synthesis, in vitro antiproliferative activity, and kinase inhibitory effects of pyrazole-containing diarylureas and diarylamides” (Eur J Med Chem, 2018).
pIC50: −log10 of the molar value.

Tests used:
MOLT-4 = assay: Growth inhibition of human MOLT4 cells assessed as cell growth at 0.01 uM incubated for 48 hrs by sulforhodamine B assay relative to control; format: functional; conditions: MOLT-4, 48 h, read-out: Activity
NCI-H226 = assay: Growth inhibition of human NCI-H226 cells assessed as cell growth at 0.01 uM incubated for 48 hrs by sulforhodamine B assay relative to control; format: functional; conditions: NCI-H226, 48 h, read-out: Activity
ACHN = assay: Growth inhibition of human ACHN cells assessed as cell growth at 1 uM incubated for 48 hrs by sulforhodamine B assay relative to control; format: functional; conditions: read-out: Activity
NCI-H23 [1] = assay: Growth inhibition of human NCI-H23 cells incubated for 48 hrs by sulforhodamine B assay; format: functional, cell-based; conditions: NCI-H23, 48 h
HOP-62 [2] = assay: Growth inhibition of human HOP62 cells incubated for 48 hrs by sulforhodamine B assay; format: functional, cell-based; conditions: HOP-62, 48 h
HCT-116 = assay: Growth inhibition of human HCT116 cells incubated for 48 hrs by sulforhodamine B assay; format: functional, cell-based; conditions: HCT-116, 48 h
IGROV-1 = assay: Growth inhibition of human IGROV1 cells assessed as cell growth at 0.1 uM incubated for 48 hrs by sulforhodamine B assay relative to control; format: functional; conditions: IGROV-1, 48 h, read-out: Activity
OVCAR-4 = assay: Growth inhibition of human OVCAR4 cells assessed as cell growth at 0.01 uM incubated for 48 hrs by sulforhodamine B assay relative to control; format: functional; conditions: OVCAR-4, 48 h, read-out: Activity
TK-10 = assay: Growth inhibition of human TK10 cells assessed as cell growth at 10 uM incubated for 48 hrs by sulforhodamine B assay relative to control; format: functional; conditions: TK-10, 48 h, read-out: Activity
UACC-62 = assay: Growth inhibition of human UACC62 cells assessed as cell growth at 1 uM incubated for 48 hrs by sulforhodamine B assay relative to control; format: functional; conditions: UACC-62, 48 h, read-out: Activity
MDA-MB-435 = assay: Growth inhibition of human MDA-MB-435 cells assessed as cell growth at 0.1 uM incubated for 48 hrs by sulforhodamine B assay relative to control; format: functional; conditions: MDA-MB-435, 48 h, read-out: Activity
SR = assay: Growth inhibition of human SR cells assessed as cell growth at 1 uM incubated for 48 hrs by sulforhodamine B assay relative to control; format: functional; conditions: read-out: Activity
UACC-257 = assay: Growth inhibition of human UACC257 cells assessed as cell growth at 100 uM incubated for 48 hrs by sulforhodamine B assay relative to control; format: functional; conditions: UACC-257, 48 h, read-out: Activity
SNB-19 [3] = assay: Growth inhibition of human SNB19 cells assessed as cell growth at 0.1 uM incubated for 48 hrs by sulforhodamine B assay relative to control; format: functional; conditions: SNB-19, 48 h, read-out: Activity
MDA-MB-468 = assay: Growth inhibition of human MDA-MB-468 cells assessed as cell growth at 1 uM incubated for 48 hrs by sulforhodamine B assay relative to control; format: functional; conditions: MDA-MB-468, 48 h, read-out: Activity
RXF 393 = assay: Growth inhibition of human RXF393 cells assessed as cell growth at 100 uM incubated for 48 hrs by sulforhodamine B assay relative to control; format: functional; conditions: RXF 393, 48 h, read-out: Activity
NCI-H23 [4] = assay: Growth inhibition of human NCI-H23 cells assessed as cell growth at 0.01 uM incubated for 48 hrs by sulforhodamine B assay relative to control; format: functional; conditions: NCI-H23, 48 h, read-out: Activity
T47D [5] = assay: Growth inhibition of human T47D cells assessed as cell growth at 0.1 uM incubated for 48 hrs by sulforhodamine B assay relative to control; format: functional; conditions: read-out: Activity
SF-539 = assay: Growth inhibition of human SF539 cells assessed as cell growth at 0.01 uM incubated for 48 hrs by sulforhodamine B assay relative to control; format: functional; conditions: SF-539, 48 h, read-out: Activity
KM12 [6] = assay: Growth inhibition of human KM12 cells assessed as cell growth at 100 uM incubated for 48 hrs by sulforhodamine B assay relative to control; format: functional; conditions: KM12, 48 h, read-out: Activity
HOP-62 [7] = assay: Growth inhibition of human HOP62 cells assessed as cell growth at 0.1 uM incubated for 48 hrs by sulforhodamine B assay relative to control; format: functional; conditions: HOP-62, 48 h, read-out: Activity
NCI-H460 = assay: Growth inhibition of human NCI-H460 cells assessed as cell growth at 100 uM incubated for 48 hrs by sulforhodamine B assay relative to control; format: functional; conditions: NCI-H460, 48 h, read-out: Activity
SN12C = assay: Growth inhibition of human SN12C cells assessed as cell growth at 0.1 uM incubated for 48 hrs by sulforhodamine B assay relative to control; format: functional; conditions: read-out: Activity
T47D [8] = assay: Growth inhibition of human T47D cells incubated for 48 hrs by sulforhodamine B assay; format: functional, cell-based
A498 = assay: Growth inhibition of human A498 cells assessed as cell growth at 0.01 uM incubated for 48 hrs by sulforhodamine B assay relative to control; format: functional; conditions: A498, 48 h, read-out: Activity
M14 = assay: Growth inhibition of human M14 cells assessed as cell growth at 1 uM incubated for 48 hrs by sulforhodamine B assay relative to control; format: functional; conditions: M14, 48 h, read-out: Activity
NCI-H322M = assay: Growth inhibition of human NCI-H322M cells assessed as cell growth at 1 uM incubated for 48 hrs by sulforhodamine B assay relative to control; format: functional; conditions: read-out: Activity
KM12 [9] = assay: Growth inhibition of human KM12 cells incubated for 48 hrs by sulforhodamine B assay; format: functional, cell-based; conditions: KM12, 48 h
HCC 2998 = assay: Growth inhibition of human HCC2998 cells assessed as cell growth at 100 uM incubated for 48 hrs by sulforhodamine B assay relative to control; format: functional; conditions: HCC 2998, 48 h, read-out: Activity
SNB-19 [10] = assay: Growth inhibition of human SNB19 cells assessed as cell growth at 1 uM incubated for 48 hrs by sulforhodamine B assay relative to control; format: functional; conditions: SNB-19, 48 h, read-out: Activity
[11] = read-out: LC50 (the source's name)
[12] = read-out: pLC50 (the source's name) (converted)

SMILES: COc1cc(Cl)cc(-c2nn(-c3cccc(NC(=O)Nc4cccc(C(F)(F)F)c4)c3)cc2-c2ccncc2)c1
- growth at 0.01 µM (MOLT-4): 95%
- growth at 0.01 µM (NCI-H226): 95%
- growth at 1 µM (ACHN): 65%
- GI50 (NCI-H23 [1]; read-out: GI50): 1.76 µM
- LC50 (NCI-H23 [1]; read-out: LC50): > 100 µM
- TGI (NCI-H23 [1]; read-out: TGI): 55.9 µM
- GI50 (NCI-H23 [1]; read-out: pGI50 (converted)): 1.78 µM
- LC50 (NCI-H23 [1]; read-out: pLC50 (converted)): > 100 µM
- TGI (NCI-H23 [1]; read-out: pTGI (converted)): 6.76 µM
- GI50 (HOP-62 [2]; read-out: GI50): 2.51 µM
- CC50 (HOP-62 [2]; [11]): > 100 µM
- TGI (HOP-62 [2]; read-out: TGI): 13.1 µM
- GI50 (HOP-62 [2]; read-out: pGI50 (converted)): 2.82 µM
- CC50 (HOP-62 [2]; [12]): > 100 µM
- TGI (HOP-62 [2]; read-out: pTGI (converted)): 13.2 µM
- pIC50 (HCT-116): 6.12
- GI50 (HCT-116; read-out: GI50): 0.754 µM
- CC50 (HCT-116; [11]): 35.7 µM
- TGI (HCT-116; read-out: TGI): 75.1 µM
- GI50 (HCT-116; read-out: pGI50 (converted)): 0.759 µM
- CC50 (HCT-116; [12]): 38.9 µM
- TGI (HCT-116; read-out: pTGI (converted)): 7.59 µM
- growth at 0.1 µM (IGROV-1): 96%
- growth at 0.01 µM (OVCAR-4): 93%
- growth at 10 µM (TK-10): 23.4%
- growth at 1 µM (UACC-62): 70%
- growth at 0.1 µM (MDA-MB-435): 97%
- growth at 1 µM (SR): 55%
- growth at 100 µM (UACC-257): -72%
- growth at 0.1 µM (SNB-19 [3]): 96%
- growth at 1 µM (MDA-MB-468): 51%
- growth at 100 µM (RXF 393): -80%
- growth at 0.01 µM (NCI-H23 [4]): 97%
- growth at 0.1 µM (T47D [5]): 94%
- growth at 0.01 µM (SF-539): 100%
- growth at 100 µM (KM12 [6]): -48%
- growth at 0.1 µM (HOP-62 [7]): 97%
- growth at 100 µM (NCI-H460): -48%
- growth at 0.1 µM (SN12C): 96%
- GI50 (T47D [8]; read-out: GI50): 1.23 µM
- CC50 (T47D [8]; [11]): > 100 µM
- TGI (T47D [8]; read-out: TGI): 59.9 µM
- GI50 (T47D [8]; read-out: pGI50 (converted)): 1.23 µM
- CC50 (T47D [8]; [12]): > 100 µM
- TGI (T47D [8]; read-out: pTGI (converted)): 6.92 µM
- growth at 0.01 µM (A498): 95%
- growth at 1 µM (M14): 64%
- growth at 1 µM (NCI-H322M): 83%
- GI50 (KM12 [9]; read-out: GI50): 0.611 µM
- CC50 (KM12 [9]; [11]): > 100 µM
- TGI (KM12 [9]; read-out: TGI): 47 µM
- GI50 (KM12 [9]; read-out: pGI50 (converted)): 6.17 µM
- CC50 (KM12 [9]; [12]): > 100 µM
- TGI (KM12 [9]; read-out: pTGI (converted)): 4.79 µM
- growth at 100 µM (HCC 2998): -83%
- growth at 1 µM (SNB-19 [10]): 77%

SMILES: COc1cc(Cl)cc(-c2nn(-c3cccc(NC(=O)c4ccc(Cl)c(Cl)c4)c3)cc2-c2ccncc2)c1
- growth at 10 µM (TK-10): 104%
